This assay has as its target DNA topoisomerase 1 (Bos taurus). Nature of the assay: Compound was evaluated for the inhibition of DNA topoisomerase-1 of calf thymus.
Regarding `CCCCCCC(O)c1cc(OC)c2c(c1OC)C(=O)C=CC2=O` (stereo not given) [6-(1-Hydroxy-heptyl)-5,8-dimethoxy-[1,4]naphthoquinone], it took 30.1 µM to reach half-maximal inhibition (IC50). Then `CCCCCC(O)c1cc(OC)c2c(c1OC)C(=O)C=CC2=O` (stereo not given) [6-(1-Hydroxy-hexyl)-5,8-dimethoxy-[1,4]naphthoquinone], with 39 µM. On to `CCC(O)c1cc(OC)c2c(c1OC)C(=O)C=CC2=O` (stereo not given) [6-(1-Hydroxy-propyl)-5,8-dimethoxy-[1,4]naphthoquinone], for which the midpoint of inhibition, the IC50, lay at 122 µM. Take `CCCCCCCC(O)c1cc(OC)c2c(c1OC)C(=O)C=CC2=O` (stereo not given) [6-(1-Hydroxy-octyl)-5,8-dimethoxy-[1,4]naphthoquinone]: the IC50 is 43.9 µM. In turn, `COc1cc(C(C)O)c(OC)c2c1C(=O)C=CC2=O` (stereo not given) [6-(1-Hydroxy-ethyl)-5,8-dimethoxy-[1,4]naphthoquinone] yielded a half-maximal inhibitory concentration (IC50) of 111 µM.

Broadly, the IC50 is the point on the concentration scale where inhibition reaches its midpoint.

For the origin of these results see BindingDB's records for doi:10.1016/s0960-894x(99)00397-2 (Chungnam National University, 1999).
